Data from patent US5168102A, “Endocrine manipulation to improve body composition of poultry” (priority 1990, dated 1992).
Several values for one entry are separate records, joined by “and”; a condition that tells them apart may be missing. Identical values can stand only once. Entries after “also recorded” stand apart in the source; their conditions may differ.

What was measured:
[1] = Example 2: plasma hormone concentrations; assay type: in vivo, broiler cockerels (Ross X Arbor Acre); conditions: vs CF+BI or CF+GH treatment
Description: Forty-eight 3-week-old broiler cockerels (Ross X Arbor Acre) were randomly divided into four treatment groups that contained three pens of four birds. The birds were housed in a controlled-environment room under a 20 hour light/4 hour dark cycle with feed and water provided ad libitum.
The preparation of ncGH used in this study was from the same lot used in Example 1.
Body weights and feed consumption was determined at weekly intervals although the ADG, ADFC and FTG ratio was determined over the 21 day period. […] At the conclusion of the study (6 weeks-of-age), birds were killed and the abdominal fat removed and weighed. The liver and abdominal fat were returned to the carcass which was frozen for proximate analysis as described in […]

[2] = supplemented diets; cited from earlier work
[3] = Example 3: final body weight and relative weights of liver, abdominal fat and muscles; assay type: in vivo, broiler cockerels
Description: (§1) Day-old broiler cockerels were randomly assigned to 24 pens (5 birds/pen) in a battery brooder. The total duration of the bird management period lasted from 7 to 8 weeks. Hereafter, the end of the first week of life of the birds is referred to as week no. 1 (i.e. 7 days of life), the end of the second week as week no. 2, etc. At week no. 3, four birds from each pen were transferred to wire grow-out cages. […] 5 to week no. 7 (4 pens/treatment). Body weight and feed consumption were determined at weekly intervals. A 5 ml blood sample was obtained from each bird at week no. 7 and stored at -20° C. until assayed for plasma hormones.
At week no. 7 (49 days-of-age), one-half of the birds (8 birds/treatment) were killed for measurement of the abdominal fat pad and liver weights. The muscles were removed, weighed, frozen in liquid N2 and stored at -20° C. until analyzed. At 51 days-of-age, groups of 4 birds per treatment were given a subcutaneous infusion of 4 μCi/Kg of 14C-L-tyrosine emulsified in sesame seed oil and immediately placed in metabolism cages. The expired CO2 was trapped in 15 ml of scrubbing solution (1:2 ethanolamine/methyl cellusolve) and the tubes were changed every 15 minutes for 90 minutes. At 90 minutes, the birds were removed from the metabolism cages and blood was obtained via cardiac puncture. Birds were then sacrificed by cervical dislocation and the muscles were removed, weighed, frozen in liquid N2 and stored at -20° C. until analyzed. Radioactivity in the samples containing trapped CO2 was counted for 10 minutes using a liquid scintillation spectrophotometer. At 54 days-of-age, groups of 4 birds per treatment were killed, the muscles were dissected, weighed, and frozen until analyzed.
The right breast muscle, i.e. BM (Pectoralis major) and right leg muscles, i.e. LM (gastrocnemius and peroneus longus) were dissected out from the birds, weighed and immediately frozen in liquid nitrogen and stored at -20° C. until analyzed for tyrosine content as specific radioactivity of tyrosine. All muscle tissues were analyzed for protein content; only tissues from isotope experiments were analyzed for tyrosine content as specific radioactivity of tyrosine.

[4] = Example 1: growth and feed efficiency of broiler cockerels fed thyroid-active substances with or without daily ncGH injection; assay type: in vivo, broiler cockerels (Ross X Arbor Acre strain)
Description: The purpose of this study was to determine the effect manipulating blood levels of thyroid hormones and/or growth hormone on growth performance and body composition of broiler chickens. […] Purified natural chicken growth hormone (ncGH) was obtained from the Research and Education Center, Harbor-UCLA Medical Center, Torrance, Calif. […] The premix (200 g) was then used to prepare 50 kg batches of each experimental diet according to the formula for broiler-finisher ration described in Table 1. The diet containing 0.5% PTU was prepared by mixing 250 g of PTU into 49.75 kg of the basal ration (Table 1).
Broiler cockerels (Ross X Arbor Acre strain) were raised to 3 weeks-of-age in a battery-brooder and then transferred to wire grow-out cages (4 birds/pen) held in two controlled-environment rooms (10 pens/room). Beginning at 3 weeks of age, eight birds (2 pens of 4 birds) were randomly assigned to each of 10 treatments. The chickens were provided the experimental diets and water ad libitum. […] For injection, the ncGH was reconstituted in sterile 0.025M sodium bicarbonate buffer (pH 9.8). The 10 treatments were administered for 21 days (i.e., from 3 to 6 weeks of age).
Measurement of body weight and feed consumption at weekly intervals allowed calculation of the average daily gain (ADG, g/bird/day), average daily feed consumption (ADFC, g/bird/day) and the feed-to-gain ratio (FIG, kg feed/kg gain) over the 21 day experimental period. Blood samples were taken each week (4, 5, and 6 weeks) just before (pre-injection) and 4 hours post-injection of ncGH. […] At the conclusion of the study, birds were killed and the carcasses frozen for proximate analysis. The frozen carcasses were ground in a meat grinder and aliquots of each ground carcass taken for determination of moisture, protein, fat and ash by established analytical procedures (Official Method of Analysis, Edition 13, W. Horwitz ed., Association of Official Analytical Chemist, Washington, D.C., 1980). Body composition data are presented as a percent of live weight at 6 weeks-of-age. Least squares regression analysis was used to test for significant differences (P<0.05) due treatment.

[5] = Example 3: growth performance, graded doses of dietary T3; assay type: in vivo, broiler cockerels; conditions: for Average Daily Gain: week no. 5 to 7
Description: as §1
Data were analyzed by analysis of variance for a randomized complete-block design. Data for ADG, ADFC and FTG were based on pen average. Unless otherwise indicated, data used for analysis was obtained from individual birds. Difference among treatments were tested by Fisher's protected LSD method.

[6] = plasma thyroid hormone bioactivity 360-1200% of normal

## N[C@@H](Cc1cc(I)c(Oc2ccc(O)c(I)c2)c(I)c1)C(=O)O [T3, 3,3',5-triiodo-L-thyronine]
[1]
  average plasma T3 level, fold higher: 2.3 times
[2]
  depressed growth rate in dwarf strains: restored to normal
[3]; 0, 0.25, 1 and 4 ppm
  relative weights of liver (RLW), right breast muscle (RBM), right leg muscle (RLM): not different among treatments
[3]; 0.25 ppm
  abdominal fat weight, reduction: 22.2% and > 20% and 22%
  effect on final body weight: no significant adverse effect in final body weight; also recorded: do not appear to have a statistically significant effect upon final body weight
[3]; 0.25 ppm of feed
  BW (final body weight): 2.42 kg
  RBM (right breast muscle): 5.60 % BW
  RLM (right leg muscle): 0.71 % BW
  RLW (relative liver weight): 2.24 % BW
[3]; 1.0 ppm
  effect on final body weight: significant sacrifice of final body weight
[3]; 1.0 ppm (p<0.05)
  abdominal fat weight, reduction: 26.6%
[3]; 1.0 ppm of feed
  Abdom. Fat: 1.88 % BW
  BW (final body weight): 2.33 kg
  RBM (right breast muscle): 5.36 % BW
  RLM (right leg muscle): 0.76 % BW
  RLW (relative liver weight): 2.14 % BW
[3]; 4.0 ppm
  effect on final body weight: excessive loss of final body weight
[3]; 4.0 ppm (p<0.05)
  abdominal fat weight, reduction: 63.3%
  final body weight, reduction: 22.2%
[3]; 4.0 ppm of feed
  Abdom. Fat: 0.94 % BW
  BW (final body weight): 1.99 kg
  RBM (right breast muscle): 5.81 % BW
  RLM (right leg muscle): 0.75 % BW
  RLW (relative liver weight): 2.18 % BW
[4]; 1 ppm T3, 1 ppm T4, 5 ppm TRH or 0.5% PTU in feed, 3 to 6 weeks of age, Group 1, mean ±SEM
  BW (body weight): 1.70 ± .09 kg
[4]; Group 1, dietary
  effect on growth rate and feed efficiency: did not affect growth rate or feed efficiency
[4]; Group 1, dietary, 21 days
  ADFC (average daily feed consumption): 101.1 ± 5.2 g/bird/day
  ADG (average daily weight gain): 48.8 ± 4.3 g/bird/day
  FTG (feed-to-gain ratio): 2.08 ± .08 kg feed/kg gain
[5]; 0.25 and 1.0 ppm
  effect on ADFC and GTF: did not affect the ADFC and GTF
[5]; 0.25 ppm
  effect on ADG: the decrease in 0.25 ppm-fed birds was not significant
[5]; 0.25 ppm of feed
  Average Daily Feed Consumption: 150.2 ± 10.0 g
  Gain-To-Feed Ratio: 0.441 ± .014
  Average Daily Gain: 66.5 ± 6.0 g
[5]; 1.0 ppm of feed
  Average Daily Feed Consumption: 139.0 ± 4.6 g
  Gain-To-Feed Ratio: 0.409 ± 0.01
  Average Daily Gain: 57.0 ± 3.0 g
[5]; 4.0 ppm (p<0.05)
  ADFC, reduction: 35%
  gain to feed ratio (GTF), reduction: 33%
[5]; 4.0 ppm of feed
  Average Daily Feed Consumption: 99.5 ± 1.7 g
  Gain-To-Feed Ratio: 0.302 ± .013
  Average Daily Gain: 30.0 ± 1.1 g
[5]; [6]
  body weight gain, depression: ≤ 57%
  feed consumption, depression: ≤ 35%
